Source: article PMC8149581 (Chemistry of Heterocyclic Compounds, 2021)
≈ marks a conversion by molar mass, not a printed value. Like-named read-outs stand apart in the source and are kept apart here.

What was measured:
[1] = tested on: influenza A/Puerto Rico/8/34 (H1N1) virus; format: cell-based
in vitro = conditions: dog
[2] = Simultaneous thermal analysis; format: physicochemical

## CC(N)C12CC3CC(CC(C3)C1)C2 (stereo not drawn) [Rimantadine, reference compound]
[1]
  Selectivity index (SI): 5
In vitro
  CC50: 60 ± 4 µg/mL (≈ 335 µM)

## O=[N+]([O-])c1cc(-c2nnn(C34CC5CC(CC(C5)C3)C4)n2)ccc1O [Compound 3g, 4-[(2-Adamantan-1-yl)-2 H -tetrazol-5-yl]-2-nitrophenol]
[2]; argon flow, heating rate 10°C/min
  Temperature from which complete decomposition occurs: ≥ 250 °C
[2]; argon flow, heating rate 10°C/min, strong exothermic effect
  Temperature of release of molecular nitrogen (loss of weight): 156.2 °C
[2]; starting with 250°C
  Loss of mass at complete decomposition: 33.6%

## Nc1cc(-c2nnn(C34CC5CC(CC(C5)C3)C4)n2)ccc1O [Compound 3i, 4-[2-(Adamantan-1-yl)-2 H -tetrazol-5-yl]-2-aminophenol]
[1]
  Selectivity index (SI): 2

## Clc1ccc(-c2nnn(C34CC5CC(CC(C5)C3)C4)n2)cc1 [Compound 3d, 2-(Adamantan-1-yl)-5-(4-chlorophenyl)-2 H -tetrazole]
[1]
  Selectivity index (SI): 2

## Ic1ccc(-c2nnn(C34CC5CC(CC(C5)C3)C4)n2)cc1 [Compound 3a, 2-(Adamantan-1-yl)-5-(4-iodophenyl)-2 H -tetrazole]
[1]; ratio of CC50 to IC50
  Selectivity index (SI): 1

## Nc1c(Br)cc([N+](=O)[O-])cc1-c1nnn(C23CC4CC(CC(C4)C2)C3)n1 [Compound 3h, 2-[2-(Adamantan-1-yl)-2 H -tetrazol-5-yl]-6-bromo-4-nitroaniline]
[1]
  Selectivity index (SI): 11
